From ChEMBL document CHEMBL1201862, “PubChem BioAssay data set” (2004)
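Values below derive from 48-hour exposures of cells grown in 96-well plates, with endpoints linearly interpolated between the two concentrations bracketing the appropriate inhibition level. GI50: concentration for 50% inhibition of growth.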 Activity calls are given as the source filed them. Rule as the data show it: active = GI50 up to about 1.1 µM and inactive = higher.

Assays:
Assay in all cases: inhibition of tumour cell growth, NCI panel, 48 h
[1] = test system: NCI-H522
[2] = test system: SK-MEL-28
[3] = test system: SN12C
[4] = test system: HOP-92
[5] = test system: HCT-116
[6] = test system: OVCAR-5
[7] = test system: RPMI-8226
[8] = test system: 786-0
[9] = test system: OVCAR-8
[10] = test system: SNB-75
[11] = test system: HCT-15
[12] = test system: PC-3
[13] = test system: MDA-N
[14] = test system: T47D
[15] = test system: HL-60
[16] = test system: K562
[17] = test system: MCF7
[18] = test system: UACC-257
[19] = test system: M14
[20] = test system: SF-268

Row | SMILES | GI50 [1] | GI50 [2] | GI50 [3] | GI50 [4] | GI50 [5] | GI50 [6] | GI50 [7] | GI50 [8] | GI50 [9] | GI50 [10] | GI50 [11] | GI50 [12] | GI50 [13] | GI50 [14] | GI50 [15] | GI50 [16] | GI50 [17] | GI50 [18] | GI50 [19] | GI50 [20]
1 | [O-][S@@+]1c2ccc3ccccc3c2N[C@@H]2[C@H]1[C@H]1C=C[C@@H]2C1 | 21.5 µM (inactive) | 98.6 µM (inactive) | 53.7 µM (inactive) | 38.4 µM (inactive) | 39.5 µM (inactive) | > 100 µM (inactive) | 31.6 µM (inactive) | 64.3 µM (inactive) | 35.8 µM (inactive) | 16.9 µM (inactive) | 33.1 µM | 32.4 µM (inactive) | 20.8 µM (inactive) | 16.5 µM (inactive) | 24 µM (inactive) | 37.1 µM (inactive) | 26.1 µM (inactive) | 56.6 µM (inactive) | 48.4 µM (inactive) | 61 µM (inactive)
2 | O=c1c2ccccc2sc2nc(CCl)nn12 | 44.8 µM (inactive) | 10.8 µM (inactive) | 9.08 µM (inactive) | 3.62 µM (inactive) | 4.75 µM (inactive) | 24 µM (inactive) | > 97.5 µM (inactive) | 12.4 µM (inactive) | > 100 µM (inactive) | 19.2 µM (inactive) | 4.6 µM | 3.42 µM (inactive) | 4.94 µM (inactive) | 4.76 µM (inactive) | 14.5 µM (inactive) | 2.32 µM (inactive) | 3.65 µM (inactive) | 14 µM (inactive) | 22 µM (inactive) | 20.2 µM (inactive)
3 | NNC(=O)c1cc(Cl)ccc1NC(=O)C12CC3CC(CC(C3)C1)C2 | 25.4 µM (inactive) | 29.9 µM (inactive) | 20.5 µM (inactive) | 26.3 µM (inactive) | 25.2 µM (inactive) | 15.6 µM (inactive) | 24 µM (inactive) | 21.4 µM (inactive) | 30.4 µM (inactive) | 42.9 µM (inactive) | 27.8 µM | 35.3 µM (inactive) | 26.2 µM (inactive) | 33 µM (inactive) | 23 µM (inactive) | 29.2 µM (inactive) | 27.2 µM (inactive) | 29.3 µM (inactive) | 14.1 µM (inactive) | 20.2 µM (inactive)
4 | CN(C)Cc1cc(C(=O)/C=C/c2ccc(O)cc2)cc(CN(C)C)c1O | 23.4 µM (inactive) | 25.9 µM (inactive) | 23 µM (inactive) | 30.2 µM (inactive) | 38.2 µM (inactive) | 42.1 µM (inactive) | 17.9 µM (inactive) | 34.4 µM (inactive) | 81.7 µM (inactive) | 26.7 µM (inactive) | 44.5 µM | 47.4 µM (inactive) | 37.7 µM (inactive) | 49.9 µM (inactive) | 19.1 µM (inactive) | 29.5 µM (inactive) | 43.2 µM (inactive) | 46.2 µM (inactive) | 27.6 µM (inactive) | 72.4 µM (inactive)
5 | CCCCCCCCCCCCCCCCCC(=O)Nc1ccn(C2OC(CO)C(O)C2O)c(=O)n1 (stereo not given) | 5.04 µM (inactive) | 31.9 µM (inactive) | 26.1 µM (inactive) | 58.1 µM (inactive) | 3.32 µM (inactive) | > 70.5 µM (inactive) | 31.6 µM (inactive) | > 40.8 µM (inactive) | 7.48 µM (inactive) | 52.6 µM (inactive) | 33 µM | 4.92 µM (inactive) | > 100 µM (inactive) | > 100 µM (inactive) | 3.43 µM (inactive) | 7.67 µM (inactive) | 2.06 µM (inactive) | > 100 µM (inactive) | 14.2 µM (inactive) | 20.1 µM (inactive)
6 | Cc1cc(O)c2cc3c(O)c(O)ccc3cc2c1 | 0.789 µM (active) | 9.51 µM (inactive) | 2.46 µM (inactive) | 2.61 µM (inactive) | 0.494 µM (active) | 3.17 µM (inactive) | 0.326 µM (active) | 3.95 µM (inactive) | 0.743 µM (active) | 0.488 µM (active) | 1.2 µM | 0.302 µM (active) | 2.18 µM (inactive) | 1.75 µM (inactive) | 1.73 µM (inactive) | 1.04 µM (active) | 2.27 µM (inactive) | 3.2 µM (inactive) | 2.86 µM (inactive) | 1.07 µM (active)
7 | Nc1ccc(S(=O)(=O)NCc2nccs2)cc1 | 16.6 µM (inactive) | 18.1 µM (inactive) | 19.2 µM (inactive) | 18.8 µM (inactive) | 19 µM (inactive) | 17.9 µM (inactive) | 25.8 µM (inactive) | 28.3 µM (inactive) | 32.7 µM (inactive) | 23.2 µM (inactive) | 26.7 µM | 30.1 µM (inactive) | 22.3 µM (inactive) | 24.1 µM (inactive) | 20.4 µM (inactive) | 23.5 µM (inactive) | 23.4 µM (inactive) | 17.7 µM (inactive) | 18.2 µM (inactive) | 18.6 µM (inactive)
